In US20050282755A1, “Compositions having antimicrobial activity and uses thereof” (priority 2004, published 2005):
Values after ≈ are worked out from the molar mass of the structure shown. Like-named read-outs stand apart in the source and are kept apart here. Non-standard residues stand in square brackets, D forms with d. Residues, ends and D or L forms follow the SMILES beside them. *: point of attachment. Lauroyl = CCCCCCCCCCCC(=O)*

How the values were obtained:
[1] = tested on: Candida albicans ATCC 18804; assay: MIC in yeasts, NCCLS M27-A2 broth microdilution, RPMI 1640 (Table 9, letter e); type: cell-based; conditions: ATCC 18804
Procedure, shortened: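 Broth microdilution per NCCLS M27-A2 in RPMI 1640 with glutamine and phenol red, final inoculum 0.5×10^3–2.5×10^3 CFU/milliliter. Incubated 24 to 48 hours at 37° C; MIC is the lowest peptide concentration with no visible growth.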

[2] = tested on: Escherichia coli ATCC 25922; assay: MIC, NCCLS M7-A6 broth microdilution (Table 9, no superscript); type: cell-based; conditions: ATCC 25922
Procedure, shortened: (§1)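 MIC determined by microdilution in cation-adjusted Mueller Hinton broth after overnight growth at 37° C, defined as the lowest peptide level lacking turbidity.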

[3] = tested on: Staphylococcus epidermidis ATCC 12228; assay: as above; type: cell-based; conditions: ATCC 12228
Procedure, shortened: as §1

[4] = tested on: Pseudomonas aeruginosa ATCC 27853; assay: as above; type: cell-based; conditions: ATCC 27853
Procedure, shortened: as §1

[5] = tested on: Salmonella dublin (Lane); assay: as above; type: cell-based
Procedure, shortened: as §1

[6] = tested on: E. coli K12 TOP10; conditions: 3 log or greater reduction in bacterial growth over 16 hours
[7] = tested on: S. aureus (Rosenbach); assay: Broth microdilution assay for MIC (20% TSB, 50 mM Na2CO3, 1 mM MgCl2), Table 4A; type: cell-based, Staphylococcus aureus; conditions: 3 log or greater reduction in bacterial growth over 16 hours
Protocol: (§2) S. dublin (Lane), S. aureus (Rosenbach), P. acnes, ATCC 6919, E. coli K12 TOP10, and E. coli K12 55099 (protease neg.) bacterial strains were tested in the microbial inhibition assays described hereafter. The S. dublin (Lane), and S. aureus (Rosenbach) strains are available from ATCC (Staphylococcus aureus subsp. aureus Rosenbach (Number: 13150) and Salmonella choleraesuis serotype dublin (Number: 39184)). The strain of P. acnes was purchased from ATCC (strain #6919) (Manassas, Va.). The E. coli K12 strains TOP 10 and 55099 were purchased from Invitrogen (Carlsbad, Calif.) and ATCC respectively. HeLa cells were purchased from ATCC (CCL2). Tryptic soy broth (TSB), Brucella broth, reinforced Clostridial broth and agar were purchased from Becton & Dickinson (distributed by VWR, West Chester, Pa.). All plastic consumables were purchased from VWR (West Chester, Pa.). […]
(§3) The minimum inhibitory concentration (MIC) of peptide compositions for S. aureus, S. dublin and E. coli was determined in a broth microdilution assay. […] The MIC for each peptide for each microorganism was determined by three methods. The growth of bacteria was directly determined by measuring the absorption at 600 nm using a Versamax microplate reader (Molecular Devices). […] After incubation for 16 hours at 37° C. bacterial growth was evaluated and documented (Alpha Innotech gel documentation system).

[8] = tested on: Propionibacterium acnes ATCC 6919; assay: MIC, agar dilution method NCCLS M11-A6, Brucella agar, anaerobic (Table 9, superscript c); type: cell-based; conditions: letter c: agar dilution NCCLS M11-A6, Brucella agar, anaerobic
Procedure, shortened: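 Agar dilution per NCCLS M11-A6 on Brucella agar; final inoculum 1.5×10^8 CFU/milliliter applied to plates, incubated 48-96 hours at 37° C. under anaerobic (GasPak) conditions. MIC = lowest peptide concentration with no colony growth.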

[9] = tested on: E. coli K12 55099 (protease neg.); conditions: 3 log or greater reduction in bacterial growth over 16 hours
[10] = tested on: human red blood cells; type: cell-based; conditions: red cells of human
Protocol: Hemoglobin-release assays with human red blood cells (RBC) were performed to determine the hemolytic activity of granulysin peptides. Human RBCs (San Diego Blood Bank, San Diego, Calif.) were washed three times in PBS buffer (8 mM Na2HPO4, 1.5 mM KH2PO4, 140 mM NaCl and 2.7 mM KCl, pH 7.4), resuspended in PBS to the concentration of 5% (v/v). The RBC were then exposed to different peptide compositions at various concentrations (100-6.25 micromolar) and incubated at 37° C. for 60 minutes in a total volume of 120 microliters. Every experiment included a negative control without peptide and maximum control treated with 5% TX-100 for complete hemoglobin release. Samples were centrifuged for 1 minute at 13,000 g to remove debris and intact cells. The hemoglobin-containing supernatant was removed and transferred to a microwell plate. Hemoglobin release was quantified at A540 using a Versamax plate reader (Molecular Devices). The degree of hemolysis is expressed as percentage of hemolysis compared to the […], using the following formula: % hemolysis=(sample−neg. control)/(max. control−neg. control)×100.

[11] = tested on: S. dublin (Lane); assay: Broth microdilution assay for MIC, Table 4A; type: cell-based, Salmonella dublin; conditions: 3 log or greater reduction in bacterial growth over 16 hours
Protocol: as §2, §3

[12] = tested on: Staphylococcus aureus ATCC 29213; assay: MIC, NCCLS M7-A6 broth microdilution, cation-adjusted Mueller Hinton broth (Table 9, no superscript); type: cell-based; conditions: ATCC 29213
Procedure, shortened: as §1

[13] = tested on: IL-12 release; assay: Anti-inflammation assay: IL-12 release in PBMCs stimulated by P. acnes (IL-12p70 ELISA); type: cell-based, human; conditions: PBMCs stimulated by P. acnes, over night; read-out: IC50 value, reduction of IL-12 release
Protocol: An assay that detected reductions in IL-12 released in whole human blood cells (PBMCs) was utilized to detect reductions in inflammation elicited by peptide compositions described herein. The assay utilized the following materials and reagents: whole human blood cells; P. acnes; peptides 55, 67 and 93 from Table 3; IL-12p70 ELISA kit (eBiosciences); RPMI 1640 growth medium; PBS; and a 96-well microtiter plate. PBMCs were prepared from whole human blood cells according to standard procedures and cells were resuspended in RPMI 1640 and 10% FCS. Cells were seeded at 250,000 cells per well in a 96-well microtiter plate and incubated for 90 minutes. […] Controls included untreated cells, P. acnes alone or a peptide alone. The cells were incubated over night at 37° C., and cell supernatants were collected and stored at −80° C. for use in an IL-12 ELISA assay (eBiosciences). A 1:1 dilution of supernatant was utilized to perform the IL-12 ELISA following the protocol provided by the manufacturer.

[14] = tested on: HeLa cells; conditions: 16 h
[15] = tested on: Jurkat cells; type: cell-based; conditions: 16 h
Protocol: Toxicity of peptide compositions for mammalian cells was determined by using a metabolic viability assay. For this assay 4×10^5 HeLa cells were seeded per well into a microwell plate (50 microliters volume). Jurkat cells also were utilized in separate experiments. The cells were incubated for 16 hours at 37° C. under mammalian cell culture conditions. Two fold serial dilutions for each peptide were prepared and added to the cells (final volume 100 microliters) and incubated for 16 hours at 37° C. For each dilution series control wells containing cells without peptide were included. The metabolic activity and viability of the cells were determined by using a commercially available assay (CellTiter96 assay, Promega Corp.). According to manufacturer's protocol 20 microliters of CellTiter reagent was added to each well and incubated at 37° C. for 1-4 hours. The CellTiter assay is a commercial version of the MTT assay, which measures the conversion of a tetrazolium […] into a colored formazan salt in metabolically active cells. The formation of the formazan product can be measured at 470 nm and is generally accepted as a measure of cellular viability. The cells were incubated at 37° C. and monitored for color development. The conversion of CellTiter reagent was measured at 470 nm using a Versamax plate reader (Molecular Devices). The viability of peptide treated cells is expressed as IC50 (i.e., concentration that leads to a 50% reduction of viability relative to the untreated control). Table 7A reports IC50 values for HeLa cells cultured in OptiMEM or 10% FBS when contacted with peptide compositions from Table 3, and Table 7B reports IC50 values for HeLa cells or Jurkat cells contacted with peptide compositions from Table 3.

[16] = tested on: Pseudomonas aeruginosa ATCC 27853; conditions: ATCC 27853, pH 7.4

| SMILES | MIC C. albicans [1] | MIC E. coli [2] | MIC S. epidermidis [3] | MIC P. aeruginosa [4] | MIC S. dublin [5] | Minimum inhibitory concentration (MIC) E. coli Top10 [6] | Minimum inhibitory concentration (MIC) S. aureus [7] | MIC P. acnes [8] | Minimum inhibitory concentration (MIC) E. coli 55099 [9] | Hemolytic effect on human red blood cells ([10]; 6.25 Micromolar) | Hemolytic effect on human red blood cells ([10]; 12.5 Micromolar) | Hemolytic effect on human red blood cells ([10]; 25 Micromolar) | Hemolytic effect on human red blood cells ([10]; 50 Micromolar) | Hemolytic effect on human red blood cells ([10]; 100 Micromolar) | Minimum inhibitory concentration (MIC) S. dublin [11] | MIC S. aureus [12] | IC50 [13] | IC50 [14] | IC50 [15] | MIC P. aeruginosa [16] |
| --- | --- | --- | --- | --- | --- | --- | --- | --- | --- | --- | --- | --- | --- | --- | --- | --- | --- | --- | --- | --- |
| CCCCCCCCCCCC(=O)N[C@H](C(=O)N[C@@H](CCCNC(=N)N)C(=O)N[C@H](C(=O)N[C@@H](CO)C(=O)N[C@@H](CCCNC(=N)N)C(=O)N[C@H](C(=O)NCC(=O)N[C@@H](CCCNC(=N)N)C(=O)N[C@@H](CO)C(=O)N[C@@H](CCCNC(=N)N)C(=O)N[C@@H](Cc1c[nH]c2ccccc12)C(=O)N[C@@H](CCCNC(=N)N)C(=O)N[C@@H](CC(=O)O)C(=O)N[C@@H](Cc1c[nH]c2ccccc12)C(=O)N[C@@H](CO)C(=O)N[C@@H](CCCNC(=N)N)C(=O)N[C@@H](CC(N)=O)C(=O)N[C@@H](Cc1ccccc1)C(=O)N[C@@H](CCSC)C(=O)N[C@@H](CCCNC(=N)N)C(=O)N[C@@H](CCCCN)C(N)=O)[C@@H](C)O)C(C)C)[C@@H](C)O [Peptide 64] (Lauroyl-TRVSRTGRSRWRDWSRNFMRK-NH2) | 32e ug/mL | 64 µg/mL (≈ 21.9 µM) | 1 µg/mL (≈ 0.342 µM) | >64 µg/mL | 16 µg/mL (≈ 5.48 µM) | 2 µM (≈ 5.84 µg/mL) | 2 µM (≈ 5.84 µg/mL) | >64c ug/mL | 1 µM (≈ 2.92 µg/mL) | 14% | 15% | 29% | 46% | 81% | 8 µM (≈ 23.4 µg/mL) | 8 µg/mL (≈ 2.74 µM) |  |  |  |  |
| CCCCCCCCCCCC(=O)N[C@@H](C(=O)N[C@H](CCCNC(=N)N)C(=O)N[C@@H](C(=O)N[C@H](CO)C(=O)N[C@H](CCCNC(=N)N)C(=O)N[C@@H](C(=O)NCC(=O)N[C@H](CCCNC(=N)N)C(=O)N[C@H](CO)C(=O)N[C@H](CCCNC(=N)N)C(=O)N[C@H](Cc1c[nH]c2ccccc12)C(=O)N[C@H](CCCNC(=N)N)C(=O)N[C@H](CC(=O)O)C(=O)N[C@H](Cc1c[nH]c2ccccc12)C(=O)N[C@H](CO)C(=O)N[C@H](CCCNC(=N)N)C(=O)N[C@H](CC(N)=O)C(=O)N[C@H](Cc1ccccc1)C(=O)N[C@H](CCSC)C(=O)N[C@H](CCCNC(=N)N)C(N)=O)[C@H](C)O)C(C)C)[C@H](C)O [Peptide 76, Lauryl-trvsrtgrsrwrdwsrnfmr-NH2] (Lauroyl-[dT][dR][dV][dS][dR][dT]G[dR][dS][dR][dW][dR][dD][dW][dS][dR][dN][dF][dM][dR]-NH2) | 16e ug/mL | 4 µg/mL (≈ 1.43 µM) | 1 µg/mL (≈ 0.358 µM) | 32 µg/mL (≈ 11.5 µM) | 16 µg/mL (≈ 5.73 µM) |  |  | 64c ug/mL |  |  |  |  |  |  |  | 2 µg/mL (≈ 0.716 µM) | 1.12 µM | 5.49 µM | 3.3 µM |  |
| CCCCCCCCCCCC(=O)N[C@H](CCCNC(=N)N)C(=O)N[C@H](CO)C(=O)N[C@H](CCCNC(=N)N)C(=O)N[C@H](Cc1c[nH]c2ccccc12)C(=O)N[C@H](CCCNC(=N)N)C(=O)N[C@H](CC(=O)O)C(=O)N[C@@H](C(=O)N[C@H](C)C(=O)N[C@H](CCCNC(=N)N)C(=O)N[C@H](CC(N)=O)C(=O)N[C@H](Cc1ccccc1)C(=O)N[C@H](CCSC)C(=O)N[C@H](CCCNC(=N)N)C(N)=O)C(C)C [Peptide 90, Lauryl-rsrwrdvarnfmr-NH2] (Lauroyl-[dR][dS][dR][dW][dR][dD][dV][dA][dR][dN][dF][dM][dR]-NH2) | 16e ug/mL | 4 µg/mL (≈ 2.07 µM) | 4 µg/mL (≈ 2.07 µM) |  | 4 µg/mL (≈ 2.07 µM) |  |  | 8c ug/mL |  |  |  |  |  |  |  | 4 µg/mL (≈ 2.07 µM) |  | 5 to 15 µM | 5 to 15 µM | 3b ug/mL |
